From US20260315564A1, “THE USE OF TP3 (THYMOPENTIN ANALOG) BY INCREASING THE ACTIVITY AND NUMBER OF T-CELLS INVOLVED IN THE DEFENSE MECHANISM OF THE IMMUNE SYSTEM OF MAMMALS, FOR THE PREVENTION OR TREATMENT OF DISEASES TO EXTEND THE AVERAGE LIFESPAN” (priority 2023, published 2026)
Marks after values point to notes of the source that are not given here. Residues, ends and D or L forms follow the SMILES beside them.

Columns and labels:
[1] = test system: transplanted skin graft rejection; assay: Rejection of the transplanted skin graft in adult thymus-removed (Tx) mice; format: in vivo, C57BL mice (adult thymectomized); details: for rejection of the transplanted skin graft: n = 8/group
Procedure: 1.3./Determination of the number of plaque-forming cells (PFC) (using rat spleen cells) The chopped splenocytes were placed in a culture medium (Parker 199) and then shaken with a shaker for 1 minute. The cells were suctioned from the surface of the rapidly settling tissue debris. Red blood cells were removed osmotically. Cell suspensions were adjusted to 107/ml. The cell suspensions were mixed with a 15% BVVT cell suspension in a ratio of 2:1. PFC was determined with the mixture using a modified chamber technique according to Channingham et al., 1966). Before filling the chamber, 50 μl of fresh diluted guinea pig serum (1:20) was added. The chambers (2-2/slide) were incubated (370C 45′) after sealing with paraffin, the formed plaques were counted under a microscope (at 400× magnification) within 2 hours Marker tests related to the rejection reaction of an adult thymus-depleted mouse skin graft 1.4./Rejection of skin transplants in nude mice after treatment with TP fragments (Snell et al., Transplantation 5, 492, 1967).
After thymectomy, mice were treated with doses of 1 mg/kg, i.p. once a week for six weeks. Thy 1+, Lyt1+, and Lyt2+ in the spleen cells of mice at the age of 13 weeks cell proportions were determined based on what was previously described.
5. The Effect of TP3 was Tested on the Activity of the Immune System by Rejection of Skin Graft
• in adult thymectomized (Tx) C57BL mice.

[2] = 12-24 months, Friedmann 1985, in words; cited from earlier work
[3] = High-dose / long-term tolerability in animals; format: in vivo; details: 12 months of use, in words
[4] = test system: Thy1+ cells in the spleens; assay: Number of Thy1+ cells in spleens of Balb/c nu/nu mice after TP-fragment treatment; format: in vivo; details: ip, n = 8/group, control 5.4
Procedure: (§1) • D.1/Direct cytotoxicity test/for the detection of Thy, Lyt antigens (Fathman 1979, in Immunol Meth I. Eds. Lefkovits, Pernis, Acad Press, New York, pp. 212-213.) was used. Subpopulation ratios were determined from bone marrow cells, thymus, and spleen cells isolated from the lymphatic organs of mice. The cell suspensions (1.087-1.088 g/cm3) were centrifuged ona density gradient (2000 rpm, 20 minutes), and the cells were washed 3× with RPMI1640 medium containing 0.3% BSA, then adjusted to 107/ml. Thyl, Lyt 1, Lyt2 monoclonal antibodies (McAb/Ando I. (ICRF Human Tumor Immunol. UCM Med Sch. London) were obtained. 25 μl McAb and 25 ul cell suspension were incubated (60′, 40C1), after centrifugation (1250 rpm 10′), the cells were resuspended with 40 μul of diluted (1:50) rabbit complement, then incubated (370C, 60′). The cell suspensions were stained with 1:5 dilution of Eosin Y (Jansen). the ratio of live to non-living cells was determined.
Mice were treated for 4 weeks 3 times a week (every other day) with TP fragments (10-9, 10-8, 10-7//10-3, 10-2, 10-1 M/animal ip. (Veys et al., 1983) at the end of the treatments ([…]), the mice were immunized (with 0.5 ml 1% BVVT suspension ip. The immune response was expressed in antibody titers as above).
Effects of inducing renewal of the immune system and increasing activity in Balb/c nude mice The nude mouse is genetically deficient in the thymus. The […] atrophies over time after hormonal follow-up in mice and humans. As a result, the strength of the lymphoid, and within that of the T cells, decreases. All this means a definitive decrease in antigen recognition capacity. The increasing number and activity of immune cells in the thymus of nude mice is increasing health and quality of life span.
The number of Thy1+ cells in the spleens of Balb/c nu/nu mice after TP-fragment treatment (Thy 1+ marker-bearing cells in mice correspond to human lymphocytes)

[5] = test system: antibody production (IgM); assay: Antibody production (IgM) in aged mice; format: in vivo, aged mice (Balb/c); details: second value column under head 'PFC IgM/logx^2'; aged mice 18 months old; n = 8/group; young control 84.1, aged 41.0
peritoneal macrophages = assay: Phagocytic function of peritoneal macrophages ex vivo in CFLP outbred mice (CY-immunosuppressed); details: for macrophage phagocytosis ex vivo: CY-treated mice, n = 15, untreated control 194.5, CY 111.5
Description: 6.2./Examination of the Effect on the Phagocytic Function of Peritoneal Macrophages CFLP Outbred in Mice
Macrophage phagocytosis ex vivo (X=yeast/100 cells)

[6] = test system: Thy1+, Lyt 1+ (helper) and Lyt 2+ (suppressor) cells; assay: Thy1+ cells and helper/suppressor (Lyt 1/Lyt 2) cell ratio in bone marrow and spleen of Balb/c nu/nu mice; format: in vivo; details: for Lyt 1/Lyt 2 (helper/suppressor cell ratio) / Thy1+ (%): 10^-5 M/mice/ip every other day for 3 weeks (9x)
Procedure: as §1
n=8/group; Treatment: 10^-5 M/mice/ip every other day for 3 weeks (9×/ip.)

## CC(C)[C@H](NC(=O)[C@H](CC(=O)O)NC(=O)[C@H](CCCCN)NC(=O)[C@@H](N)CCCN=C(N)N)C(=O)N[C@@H](Cc1ccc(O)cc1)C(=O)O [TP5] (H-RKDVY-OH)
[1]; female Tx C57BL mice, untreated control 14.5, Tx 54.6
  rejection of the transplanted skin graft: 23.1**
[1]; male Tx C57BL mice, untreated control 27.8, Tx 59.8
  rejection of the transplanted skin graft: 41.3
[1]; male mice, rank in words
  recovery of T cells / shortening of skin graft survival time: TP5>TP3
[2]
  safety in patients: well-used, safe drug candidate
[3]
  side effects: did not cause any signs of side effects
[4]; 10^-1 M/mice
  number of Thy1+ cells in spleen: 131*
[4]; 10^-2 M/mice
  number of Thy1+ cells in spleen: 129**
[4]; 10^-3 M/mice
  number of Thy1+ cells in spleen: 94*
[4]; 10^-7 M/mice
  number of Thy1+ cells in spleen: 125**
[4]; 10^-8 M/mice
  number of Thy1+ cells in spleen: 79*
[4]; 10^-9 M/mice
  number of Thy1+ cells in spleen: 9.5
[5]
  IgM/logx^2: 44.7 logx^2
Peritoneal macrophages; CY immunosuppression, 1.0 mg/kg/sc (TP3), in words
  phagocytic activity of macrophages: ineffective
Peritoneal macrophages; TP dose 0.1 (mg/kg/sc)
  macrophage phagocytosis ex vivo: 149.6 yeast/100 cells
Peritoneal macrophages; TP dose 1.0 (mg/kg/sc)
  macrophage phagocytosis ex vivo: 123.1 yeast/100 cells
Peritoneal macrophages; TP dose 10.0 (mg/kg/sc)
  macrophage phagocytosis ex vivo: 95.6 yeast/100 cells
[6]; bone marrow (Csontvelő), control 0.97
  Lyt 1/Lyt 2 (helper/suppressor cell ratio): 1.95
[6]; bone marrow (Csontvelő), control 3.7
  Thy1+ (%): 47.3%
[6]; spleen (Lép), control 1.10
  Lyt 1/Lyt 2 (helper/suppressor cell ratio): 2.48
[6]; spleen (Lép), control 5.4
  Thy1+ (%): 71.0%
[6]; spleen, 10^-5 M/mice/ip, 9x
  change in the spleen: 130%
